Where a SMILES comes first, the peptide text is derived from it. [ ]: non-standard residue; d: D form. Phe(4-Br) = N[C@@H](Cc1ccc(Br)cc1)C(=O)O; NMeL = CN[C@@H](CC(C)C)C(=O)O; Nle = CCCC[C@H](N)C(=O)O; Aib = CC(C)(N)C(=O)O
How the values were obtained:
[1] = molecular target: T1, wild-type rat apelin receptor (Rattus norvegicus, UniProt Q9JHG3); assay: Radioligand binding, displacement of [125I]-pyr-1-apelin-13 on CHO cell membranes
T1 construct: expressed in transfected cells
T1 sequence (Q9JHG3 1-377): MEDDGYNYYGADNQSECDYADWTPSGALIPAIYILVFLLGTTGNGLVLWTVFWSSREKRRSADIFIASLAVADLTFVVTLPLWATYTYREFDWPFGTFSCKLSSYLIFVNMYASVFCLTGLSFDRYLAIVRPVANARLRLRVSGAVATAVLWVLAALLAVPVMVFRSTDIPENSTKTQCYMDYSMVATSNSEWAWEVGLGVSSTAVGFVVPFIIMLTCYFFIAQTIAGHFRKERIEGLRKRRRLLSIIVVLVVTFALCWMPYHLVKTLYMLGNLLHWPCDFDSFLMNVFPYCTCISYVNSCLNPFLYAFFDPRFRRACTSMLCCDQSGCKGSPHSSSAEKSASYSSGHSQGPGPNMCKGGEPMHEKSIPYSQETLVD
In short: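 Membranes (1 μg) from CHO cells stably expressing rat apelin receptor-EGFP incubated 3 h at 20 °C with 0.2 nM [125I]-pyr-1-apelin-13 and varying peptide concentrations in 50 mM HEPES, 5 mM MgCl2, 1% BSA, pH 7.5. Bound radioactivity measured by filtration and gamma counting.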

KLKB1 [2] = molecular target: T2, KLKB1 (Homo sapiens, UniProt P03952); assay: Kinetic parameters for KLKB1 cleavage; format: biochemical; set-up: purchased Novoprotein; settings: for Km / kcat: enzyme KLKB1
KLKB1 [3] = molecular target: T2, KLKB1; assay: In vitro KLKB1 stability (half-life); format: in vitro ADME; set-up: purchased Novoprotein; settings: rhKLKB1, 37° C.
isolated rat hearts = assay: Langendorff isolated heart, ischemia-reperfusion injury; settings: ex vivo heart, 30 min ischemia
Method: The ex vivo heart was assessed for a variety of parameters (heart rate (HR); left ventricle developed pressure (LVDP); maximum derivative of change in systolic pressure over time (max dP/dt); minimum derivative of change in diastolic pressure over time (min dP/dt); and rate-pressure product (RPP)) indicative of general heart function and performance (FIG. 11).
Langendorff heart perfusion and ischemia-reperfusion injury were prepared and cardiac function was measured. Mice were heparinized and anaesthetized with 1.5-2% isoflurane inhalation. The heart was excised, mounted on a Langendorff system, and perfused at a consistent pressure of 80 mmHg with modified Krebs-Henseleit solution (116 mM NaCl, 3.2 mM KCl, 2.0 mM CaCl2), 1.2 mM MgSO4, 25 mM NaHCO3, 1.2 mM KH2PO4, 11 mM glucose, 0.5 mM EDTA and 2 mM pyruvate), which was kept at 37° C. and continuously oxygenated with 95% O2 and 5% CO2 which maintained the perfusion buffer at pH 7.4. After stabilization and 10 min baseline recording, global ischemia was induced for 30 min followed by 40 min of reperfusion. Apelin 17 (2) or apelin peptides (11, 17, 18, or 19) were given at the start of reperfusion for 10 min at a concentration of 1 pM. Left ventricular functions were obtained continuously by PowerLab system (ADInstruments, Australia). Data was reported as mean value of every 5 min. Left ventricular functions were reported as: Left Ventricular Developed Pressure (LVDP); Heart rate (HR); maximum derivative of change in systolic pressure over time (max dP/dt); minimum derivative of change in diastolic pressure over time (min dP/dt); and Rate Pressure Product (RPP).

T2 sequence (P03952 20-638): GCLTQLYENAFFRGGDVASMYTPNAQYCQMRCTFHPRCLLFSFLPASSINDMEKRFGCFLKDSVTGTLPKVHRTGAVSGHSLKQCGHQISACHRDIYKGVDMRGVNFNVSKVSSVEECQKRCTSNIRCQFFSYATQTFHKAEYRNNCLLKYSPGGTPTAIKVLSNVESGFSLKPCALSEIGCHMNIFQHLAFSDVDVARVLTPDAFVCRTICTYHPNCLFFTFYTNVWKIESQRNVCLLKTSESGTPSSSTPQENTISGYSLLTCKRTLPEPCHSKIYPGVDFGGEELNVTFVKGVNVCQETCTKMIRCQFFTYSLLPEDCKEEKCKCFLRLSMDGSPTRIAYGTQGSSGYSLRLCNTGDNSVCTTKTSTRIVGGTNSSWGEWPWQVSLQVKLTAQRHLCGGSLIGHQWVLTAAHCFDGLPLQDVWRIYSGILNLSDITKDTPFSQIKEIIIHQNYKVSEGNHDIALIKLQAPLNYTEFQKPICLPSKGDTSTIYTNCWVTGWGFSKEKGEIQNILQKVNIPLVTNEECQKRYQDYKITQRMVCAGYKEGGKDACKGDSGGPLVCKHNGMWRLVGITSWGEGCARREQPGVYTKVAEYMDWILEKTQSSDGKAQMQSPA

Structure (SMILES) | Ki ([1]; displacement of [125I]-pyr-1-apelin-13 (0.2 nM), CHO membranes, rat apelin receptor-EGFP, means ± SE, read-out: Affinity Ki) | Km (KLKB1 [2]) | kcat (KLKB1 [2]) | t1/2 (rhKLKB1, h) (KLKB1 [3]) | receptor binding affinity (in words) ([1]; rat apelin receptor) | degradation by KLKB1 (in words) (KLKB1 [2]; KLKB1) | ability to rescue the heart from ischemic reperfusion injury (isolated rat hearts; peptide at start of reperfusion for 10 min at 1 pM) | max/min dP/dt, LVDP and RPP compared to native isoform 2 (isolated rat hearts; reperfusion)
CSCC[C@H](NC(=O)[C@@H]1CCCN1C(=O)CNC(=O)[C@H](CCCCN)NC(=O)[C@H](Cc1cnc[nH]1)NC(=O)[C@H](CO)NC(=O)[C@H](CC(C)C)NC(=O)[C@H](CCCNC(=N)N)NC(=O)[C@@H]1CCCN1C(=O)[C@H](CCCNC(=N)N)NC(=O)[C@H](CCC(N)=O)NC(=O)[C@H](CCCNC(=N)N)NC(=O)[C@H](CCCNC(=N)N)NC(=O)[C@H](Cc1ccccc1)NC(=O)[C@@H](N)CCCCN)C(=O)N1CCC[C@H]1C(=O)N[C@@H](Cc1ccccc1)C(=O)O [Peptide 2, reference compound] | 0.05 nM | 97 ± 21 µM | 13.7 ± 1.3 s⁻¹ | 0.4 h |  |  |  | 
CCCC[C@H](NC(=O)[C@@H]1CCCN1C(=O)CNC(=O)[C@H](CCCCN)NC(=O)[C@H](Cc1c[nH]cn1)NC(=O)[C@H](CO)NC(=O)[C@H](CC(C)C)N(C)C(=O)[C@H](CCCNC(=N)N)NC(=O)[C@@H]1CCCN1C(=O)[C@H](CCCNC(=N)N)NC(=O)[C@H](CCC(N)=O)NC(=O)[C@H](CCCNC(=N)N)NC(=O)[C@H](CCCNC(=N)N)NC(=O)[C@H](Cc1ccccc1)NC(=O)[C@@H](N)CCCCN)C(=O)NC(C)(C)C(=O)N[C@@H](Cc1ccc(Br)cc1)C(=O)O [Peptide 11] (H-KFRRQRPR[NMeL]SHKGP[Nle][Aib][Phe(4-Br)]-OH; C-terminus assumed) |  | 245 ± 75 µM | 16.5 ± 2.1 s⁻¹ |  | sub-nanomolar receptor affinities | degraded quickly | equivalent ability to rescue the heart from ischemic reperfusion injury compared to native isoform 2 | slight improvement over the native isoform

Source: patent US10640545B2 (THE GOVERNORS OF THE UNIVERSITY OF ALBERTA, priority 2017, dated 2020)
